Experimental findings from ChEMBL document CHEMBL4251607, “Antagonists of the adenosine A2A receptor based on a 2-arylbenzoxazole scaffold: Investigation of the C5- and C7-positions to enhance affinity” (Eur J Med Chem, 2018) are described below.

Series [1] concerns the target T1, Adenosine receptor A2a (Homo sapiens, UniProt P29274). The series is described as follows: Displacement of [3H]-ZM241385 from human adenosine A2A receptor expressed in CHO cell membranes after 1 hr by TopCount microplate scintillation counting method. In general terms: Loss of bound radioactivity is the signal in a displacement assay; it reports binding, not function.

Series [2] has as its target T1, Adenosine receptor A2a. The series is described as follows: Antagonist activity at human adenosine A2A receptor expressed in HEK293 cell membranes assessed as inhibition of […]-induced [35S]GTPgammaS binding preincubated for 10 mins followed by […] addition by TopCount scintillation counting method. The format is functional. Background: Binding of GTPγS marks nucleotide exchange on a G protein.

Series [3] in a line: Protein binding in human plasma at 10 uM after 4 hrs.
Series [4] is described as follows: Apparent permeability from apical to basolateral side in human Caco2 cells at 10 uM after 40 mins. To be noted: Caco-2. In general terms: Caco-2 cells form a polarised layer with tight junctions and transporters.
Series [5] in a line: Apparent permeability from basolateral to apical side in human Caco2 cells at 10 uM after 40 mins. To be noted: Caco-2.
A short description of series [6]: Half life in human liver microsomes at 0.1 uM.
The subject of series [7] is SH-SY5Y. The series is described as follows: Cytotoxicity against human SH-SY5Y cells assessed as cell death after 72 hrs by MTT assay. Format: cell-based.
The nature of another series: physchem. To be noted: PBS, pH 7.4.
The next series can be described thus: in vitro. Conditions: human.
Series [8] concerns the target T1, Adenosine receptor A2a. The series is described as follows: Antagonist activity at adenosine A2A receptor (unknown origin).
The target of series [9] is T1, Adenosine receptor A2a. Put plainly: Displacement of [3H]-ZM241385 from human adenosine A2A receptor expressed in HEK293 cell membranes after 1 hr by scintillation counting method.
The subject of series [10] is SH-SY5Y. The series is described as follows: Cytotoxicity against human SH-SY5Y cells assessed as cell death at 10 uM after 72 hrs by MTT assay relative to control. The format is cell-based.
The next series addresses T2, Adenosine receptor A1 (Homo sapiens, UniProt P30542).
T2 sequence (P30542 whole entry): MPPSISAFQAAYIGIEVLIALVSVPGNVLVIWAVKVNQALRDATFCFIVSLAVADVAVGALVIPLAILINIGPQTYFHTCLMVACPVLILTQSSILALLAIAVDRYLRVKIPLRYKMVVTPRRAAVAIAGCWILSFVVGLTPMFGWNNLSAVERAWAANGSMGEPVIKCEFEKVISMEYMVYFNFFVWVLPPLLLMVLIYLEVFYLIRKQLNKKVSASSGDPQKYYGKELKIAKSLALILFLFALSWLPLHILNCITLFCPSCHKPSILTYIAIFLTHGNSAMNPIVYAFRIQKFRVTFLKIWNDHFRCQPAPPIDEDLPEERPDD
The series is described as follows: Displacement of [3H]DPCPX from human adenosine A1 receptor expressed in CHO cell membranes.

For series [11], the target named is T3, Adenosine receptor A2b (Homo sapiens) (UniProt P29275).
T3 sequence (whole entry): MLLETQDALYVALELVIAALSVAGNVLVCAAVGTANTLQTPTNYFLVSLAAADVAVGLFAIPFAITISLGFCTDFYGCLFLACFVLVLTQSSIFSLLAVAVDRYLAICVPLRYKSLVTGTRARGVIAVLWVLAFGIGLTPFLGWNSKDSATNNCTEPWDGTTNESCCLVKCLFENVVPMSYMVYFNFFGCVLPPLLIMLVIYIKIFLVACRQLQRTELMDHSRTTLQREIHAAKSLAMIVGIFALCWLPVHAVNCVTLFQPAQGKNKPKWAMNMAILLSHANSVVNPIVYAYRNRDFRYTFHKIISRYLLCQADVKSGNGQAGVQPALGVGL
The series is described as follows: Displacement of [3H]CPX from human adenosine A2B receptor expressed in HEK293 cell membranes at 10 uM relative to control.

The target of series [12] is T4, Adenosine receptor A3 (Homo sapiens) (UniProt P0DMS8).
T4 sequence (whole entry): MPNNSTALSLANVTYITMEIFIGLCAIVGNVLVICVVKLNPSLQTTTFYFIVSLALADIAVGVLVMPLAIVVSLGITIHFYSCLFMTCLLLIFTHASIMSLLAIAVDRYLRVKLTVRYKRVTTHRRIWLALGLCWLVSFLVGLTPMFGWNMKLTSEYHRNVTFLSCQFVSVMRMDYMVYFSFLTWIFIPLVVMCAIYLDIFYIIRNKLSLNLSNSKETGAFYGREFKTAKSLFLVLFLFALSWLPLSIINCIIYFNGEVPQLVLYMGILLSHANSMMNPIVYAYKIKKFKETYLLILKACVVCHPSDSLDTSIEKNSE
The series is described as follows: Displacement of [125I]ABMECA from human adenosine A3 receptor expressed in HEK293 cell membranes at 10 uM relative to control.

In brackets after ≈: the same amount, converted by molar mass.

T1 sequence (P29274 whole entry): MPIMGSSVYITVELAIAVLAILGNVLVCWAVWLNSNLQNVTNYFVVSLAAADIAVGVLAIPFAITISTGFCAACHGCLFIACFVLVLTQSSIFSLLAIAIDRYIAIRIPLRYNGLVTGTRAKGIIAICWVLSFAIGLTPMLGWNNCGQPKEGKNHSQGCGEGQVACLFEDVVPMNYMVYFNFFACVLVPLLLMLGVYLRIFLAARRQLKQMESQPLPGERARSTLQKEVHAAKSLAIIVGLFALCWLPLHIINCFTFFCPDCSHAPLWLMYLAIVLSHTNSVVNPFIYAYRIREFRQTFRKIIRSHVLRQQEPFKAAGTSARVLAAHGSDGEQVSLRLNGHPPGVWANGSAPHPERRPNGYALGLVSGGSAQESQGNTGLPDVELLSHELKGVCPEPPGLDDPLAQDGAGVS
Description for in vitro: Intrinsic clearance in human liver microsomes at 0.1 uM

Turning to `Nc1cc(NC(=O)CN2CCCCC2)c2oc(-c3ccco3)nc2c1`, on Adenosine receptor A2a [1], the inhibition constant (Ki) (as a rule, a dissociation constant, usually derived from enzyme kinetics or from competition with a known ligand) was greater than 10000 nM.
In turn, `O=C(CN1CCCCC1)Nc1cc(-c2ccco2)c2oc(-c3ccco3)nc2c1` showed a Ki at Adenosine receptor A2a [1] of 210 nM. Besides, at Adenosine receptor A2a [2], the IC50 (commonly the concentration at which inhibition is half-maximal) was 486 nM.
`O=C(CCN1CCCCC1)Nc1cc(-c2ccco2)c2oc(-c3ccco3)nc2c1`: on Adenosine receptor A2a [1], the affinity, expressed as Ki, was 81 nM. In addition, the fraction unbound (as a rule, free concentration divided by total concentration) at 4 h, 10 µM in series [3] was 0.02. Further, in series [4], the Papp A→B (in general, how fast a substance crosses the layer from the apical side) at 40 min, 10 µM was 2.3 ×10⁻⁶ cm/s. Moreover, the Papp B→A (as a rule, how fast a substance crosses the layer from the basolateral side) at 40 min, 10 µM in series [5] was found to be 1.2 ×10⁻⁶ cm/s. Besides, the half-life (commonly the time needed for the level to fall by half in the phase considered) at 0.1 µM in [6] (liver microsomes) was 41 min. In addition, the IC50 in the series on SH-SY5Y [7] amounted to 9 µM. In addition, the solubility (in general, how much of the substance goes into solution per volume) at 24 h in “physchem” is 165 µM (≈ 66.9 µg/mL). In the series “in vitro” (liver microsomes), the microsomal CLint – broadly, a measure of how fast metabolising enzymes remove a compound, apart from limits set by blood flow – at 0.1 µM was 172 µL/min/mg.
`CCOCCOc1ccc(N2CCN(CCC(=O)Nc3cc(-c4ccco4)c4oc(-c5ccco5)nc4c3)CC2)cc1`: on Adenosine receptor A2a [1], the Ki is greater than 10000 nM.
Same read-out and setting: the result for `COc1ccc(-c2cc(N)cc3nc(-c4ccco4)oc23)cc1OC` reads 90 nM.
Still for that read-out and setting: the result for `O=C(CCCN1CCCCC1)Nc1cc(-c2ccco2)c2oc(-c3ccco3)nc2c1` reads 98 nM.
Turning to `COCCOc1ccc(N2CCN(CCn3ncc4c3nc(N)n3nc(-c5ccco5)nc43)CC2)cc1` [PRELADENANT], the Ki on Adenosine receptor A2a [8] was 0.5 nM.
For `Nc1ccc2oc(-c3ccco3)nc2c1`, the Ki came out at 10 µM on Adenosine receptor A2a [9] and 10000 nM on Adenosine receptor A2a [1].
In turn, `Nc1cc(-c2ccc(F)cc2)c2oc(-c3ccco3)nc2c1` showed a Ki on Adenosine receptor A2a [1] of 438 nM.
In turn, `O=C(CCN1CCOCC1)Nc1cc(-c2ccco2)c2oc(-c3ccco3)nc2c1` returned a Ki on Adenosine receptor A2a [1] of 90 nM. The molecule further showed a fraction unbound at 4 h, 10 µM in series [3] of 0.02. For the same molecule, in series [4], the Papp A→B at 40 min, 10 µM stood at 11 ×10⁻⁶ cm/s. The Papp B→A at 40 min, 10 µM in [5] amounted to 1.6 ×10⁻⁶ cm/s. In [6] (microsomes), this molecule registered a half-life at 0.1 µM greater than 60 min. For the same molecule, the IC50 in the series on SH-SY5Y [7] was 77 µM. The concentration in solution in the series “physchem” (solubility at 24 h) was 173 µM (≈ 70.5 µg/mL). In “in vitro” (microsomes), this molecule registered a microsomal CLint at 0.1 µM of less than 115 µL/min/mg.
On Adenosine receptor A2a [1], `Nc1cc(NC(=O)CN2CCCCC2)cc2nc(-c3ccco3)oc12` registered a Ki of 480 nM. Besides, on Adenosine receptor A2a [2], the IC50 amounted to 250 nM.
Molecule `O=C(CCN1CCc2ccccc2C1)Nc1cc(-c2ccco2)c2oc(-c3ccco3)nc2c1` came in with a Ki at Adenosine receptor A2a [1] of 30 nM. The molecule also displayed a fraction unbound at 4 h, 10 µM in series [3] of 0.001. Besides, the Papp A→B at 40 min, 10 µM in series [4] amounted to 0.2 ×10⁻⁶ cm/s. In [6] (liver microsomes), this molecule displayed a half-life at 0.1 µM greater than 60 min. For the same molecule, the Activity in the series on SH-SY5Y [10] is 37%. Further, in “physchem”, the solubility at 24 h amounted to 8 µM (≈ 3.63 µg/mL). The microsomal CLint at 0.1 µM in the series “in vitro” (liver microsomes) was less than 115 µL/min/mg.
The molecule `Cc1ccc(-c2cc(N)cc3nc(-c4ccco4)oc23)cc1` yielded a Ki at Adenosine receptor A2a [1] greater than 10000 nM.
As for `O=C(CN1CCCCC1)Nc1ccc2oc(-c3ccco3)nc2c1`, the Ki at Adenosine receptor A2a [9] came to 1 µM; on Adenosine receptor A2a [1], 1000 nM. Also, the Activity with SH-SY5Y [10] stood at 0%.
Consider `Nc1cc(-c2ccccn2)c2oc(-c3ccco3)nc2c1`, for which the Ki at Adenosine receptor A2a [1] stood at 135 nM.
For the molecule `Nc1cc(-c2ccco2)c2oc(-c3ccco3)nc2c1`, the Ki came out at 40 nM on Adenosine receptor A2a [1] and 7.7 nM on Adenosine receptor A1. Further, the results for the IC50 at Adenosine receptor A2a [2] and in the series on SH-SY5Y [7] were 70.6 nM and 40 µM, respectively. This molecule had a fraction unbound at 4 h, 10 µM in series [3] of 0.1. Also, in series [4], the apical-to-basolateral permeability (Papp A→B) at 40 min, 10 µM came out at 77 ×10⁻⁶ cm/s. In series [5], the Papp B→A at 40 min, 10 µM was determined as 37 ×10⁻⁶ cm/s. Also, the half-life at 0.1 µM in [6] (liver microsomes) is greater than 60 min. In addition, the inhibition (commonly the relative decrease from the control value, in per cent) was 94% in series [11] and 90% in series [12]. The amount in solution in the series “physchem” (solubility at 24 h) came to 31 µM (≈ 8.25 µg/mL). In the series “in vitro” (liver microsomes), the microsomal CLint at 0.1 µM is less than 115 µL/min/mg.
As to `Nc1cc(N2CCOCC2)c2oc(-c3ccco3)nc2c1`, the Ki at Adenosine receptor A2a [1] is greater than 10000 nM.
On the same count and under the same terms, the result for `Nc1cc(-c2cccs2)c2oc(-c3ccco3)nc2c1` reads 71 nM; that for `Nc1cc(-c2ccc(C(F)(F)F)cc2)c2oc(-c3ccco3)nc2c1`, greater than 10000 nM.
The same measure, in the same setting: under `Nc1cc(-c2ccccc2)c2oc(-c3ccco3)nc2c1` stands 202 nM; under `COc1ccc(-c2cc(NC(=O)CCN3CCc4ccccc4C3)cc3nc(-c4ccco4)oc23)cc1OC`, greater than 10000 nM.
